Test results reported in the NIST ThermoML archive (doi:10.1021/je8007843).
Numbers after ± are expanded uncertainties.

Conditions: Crystal; visual observation

| Normal melting temperature [°C] | Structure (SMILES) |
| --- | --- |
| 57.6 ± 0.6 | Nc1ccccn1 [2-pyridinamine] |
| 121.7 ± 1.2 | Nc1cccc(N)n1 [pyridine-2,6-diamine] |
